Laboratory results as given in patent publication US11358933B2, “Compounds and methods for inhibiting CYP26 enzymes” (Queen's University at Kingston, priority 2017, dated 2022).

How the values were obtained:
[1] = system: MC3T3-E1 cells; assay: Osteoblast cell differentiation, MC3T3-E1 cells; assay type: cell-based, mouse
Protocol: These experiments are used to test the ability of CYP26 inhibitors to reduce or block osteoblast differentiation in vitro using a cell culture model. MC3T3-E1 mouse calvarias pre-osteoblasts (available from the American Type Culture Collection) were cultured in MEM-α without ascorbic acid. To induce osteoblast differentiation and matrix mineralization, cells are switched to medium containing ascorbic acid (50 μg/ml) and phosphate (10 mM β-glycerophosphate) and cultured for up to 21 days while changing media every 2-3 days. Cells are also treated with varying concentrations of RA or CYP26 inhibitor compound to assess effects on osteoblast differentiation. At the end of the treatment period, cells in 24-well plates and fixed in 70% ethanol, and stained with Alizarin red (40 mM pH 4.2) to visualize calcified extracellular matrix, indicative of osteoblast differentiation. Stained wells were photographed under a Leica MZ95 dissecting microscope. Other cells grown in 6 well plates are used for RNA extraction, and qPCR analysis of bone differentiation markers and RA target genes.

[2] = system: MV4-11 cells; assay: Leukemia cell differentiation by FACS (CD11b+), MV4-11 cells with or without stroma; assay type: cell-based, human; conditions: RA plus compound, in the presence of stroma
Protocol: Many human non-APL AML cell lines are sensitive to RA-induced differentiation. However, co-culture of leukemic cells with bone marrow stromal cells can block this effect of RA. This assay tests the ability of CYP26 inhibitor compounds to overcome the protective effect that stromal cells have on leukemic cell differentiation. For these experiments, OP9 mouse bone marrow stromal cells are grown MEM-α containing 20% FBS, in 24 well plates until a cell monolayer is formed. OP9 cells are then irradiated (15Gy) using a GammaCell 20 cesium-137 source (located at Queen's University) in order to induce growth arrest. Leukemic cells are then added to the irradiated monolayers, or control wells without OP9 cells. AML cell lines (150,000 cells) are then plated onto OP9 monolayers in their appropriated growth medium; THP-1 RPMI-1640 medium containing 10% FBS; MDSL, RPMI-1640 medium containing 10% FBS and 10 ng/ml recombinant human IL-3; Kasumi-1, RPMI-1640 containing 20% FBS; MV4-11, IMDM containing 10% FBS. […] Stained cells are then sorted by FACS in a BD FACS Aria 3 flow cytometer (Queen's University) using FACS Diva software, to assess percentage of cells that are CD11b^+, the relative expression levels of CD11b (by median fluorescence intensity—MFI), or percentage of CD34^+CD38^− leukemic stem cells (LSCs). […]

[3] = target: CYP26A1 (Homo sapiens (Human), UniProt O43174); assay: Cell-based inhibitor assay ([3H]-RA metabolism), CYP26A1 stably transfected HeLa cells
CYP26A1, sequence (O43174 whole entry): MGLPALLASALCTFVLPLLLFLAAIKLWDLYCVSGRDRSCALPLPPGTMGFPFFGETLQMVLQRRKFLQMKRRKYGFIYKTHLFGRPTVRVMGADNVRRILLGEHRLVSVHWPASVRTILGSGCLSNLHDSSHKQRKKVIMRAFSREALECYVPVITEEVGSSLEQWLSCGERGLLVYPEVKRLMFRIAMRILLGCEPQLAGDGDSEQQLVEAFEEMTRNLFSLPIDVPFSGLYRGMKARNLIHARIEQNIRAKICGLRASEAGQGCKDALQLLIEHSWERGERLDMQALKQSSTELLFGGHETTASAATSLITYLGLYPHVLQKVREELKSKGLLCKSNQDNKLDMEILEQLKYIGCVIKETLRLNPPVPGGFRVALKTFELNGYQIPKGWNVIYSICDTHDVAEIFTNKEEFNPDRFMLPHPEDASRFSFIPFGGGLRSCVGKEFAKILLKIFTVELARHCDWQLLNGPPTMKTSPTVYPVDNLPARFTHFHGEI
Protocol: (§1) CYP26A1 or CYP26B1 stably transfected HeLa cells were maintained in Minimum Essential Medium (MEM) containing 10% fetal bovine serum (FBS) and 100 μg/mL hygromycin. Exponentially growing cells were harvested by incubation in trypsin. Cells were then collected and re-plated in 48-well culture plates at 5×10^5 cells in 0.2 mL of culture medium containing 0.05 μCi [^3H]-RA in the presence or absence of increasing concentrations of a test compound. The test compounds were diluted in dimethyl sulfoxide (DMSO) and then added in duplicate to wells at 0.01, 0.1, 1, 10 and 100 μM final concentration. As a positive control for inhibition of RA metabolism, cells were also incubated with ketoconazole at the same concentrations as above. Cells were incubated for 3 hours at 37° C. Retinoids were then extracted using the procedure of Bligh, et al., (1959), Canadian Journal of Biochemistry 37, 911-917, which was modified by using dichloromethane instead of chloroform. Each sample's water soluble radioactivity level was quantified using a β-scintillation counter (using Ecolume scintillation fluid, available from MP Biomedicals of Solon, Ohio, USA). IC50 values represented the concentration of inhibitor required to inhibit all trans-RA metabolism by 50%, and were derived from log transformed data.

[4] = system: RA target genes in primary human bone marrow cells; assay: RA target gene expression in primary human bone marrow stromal cells; assay type: cell-based; conditions: co-treatment with RA
[5] = system: bone marrow mononuclear cells of mice; assay: Induction of RA activity in mouse bone marrow (QPCR of RA target genes); assay type: in vivo; conditions: intravenous 40 μg/kg once per day for two days, versus vehicle
Protocol: Human and mouse bone marrow stromal cells express CYP26 enzymes and Cyp26B1 is highly inducible by RA in these cells. This experiment tests whether exposure of bone marrow to a CYP26 inhibitor is sufficient to raise RA levels in the bone marrow and induce RA-target genes. Mice (8-12 week old) were given intravenous injections (tall vein) on two consecutive days (once per day) of CYP26 inhibitor compound dissolved in 0.9% sodium chloride/0.1% DMSO. Animals were given a dose of 40 μg/kg of inhibitor, or an equal volume of vehicle alone. The morning after the second injection, animals were sacrificed, and bone marrow mononuclear cells were harvested from femurs using Lympholyte-mammal reagent (available from Cedarlane, Burlington, Canada). RNA was then extracted from isolated cells, and RA target gene expression assessed by qPCR.

[6] = target: CYP26B1 (Homo sapiens (Human), UniProt Q9NR63); assay: Cell-based inhibitor assay ([3H]-RA metabolism), CYP26B1 stably transfected HeLa cells
CYP26B1, sequence (Q9NR63 whole entry): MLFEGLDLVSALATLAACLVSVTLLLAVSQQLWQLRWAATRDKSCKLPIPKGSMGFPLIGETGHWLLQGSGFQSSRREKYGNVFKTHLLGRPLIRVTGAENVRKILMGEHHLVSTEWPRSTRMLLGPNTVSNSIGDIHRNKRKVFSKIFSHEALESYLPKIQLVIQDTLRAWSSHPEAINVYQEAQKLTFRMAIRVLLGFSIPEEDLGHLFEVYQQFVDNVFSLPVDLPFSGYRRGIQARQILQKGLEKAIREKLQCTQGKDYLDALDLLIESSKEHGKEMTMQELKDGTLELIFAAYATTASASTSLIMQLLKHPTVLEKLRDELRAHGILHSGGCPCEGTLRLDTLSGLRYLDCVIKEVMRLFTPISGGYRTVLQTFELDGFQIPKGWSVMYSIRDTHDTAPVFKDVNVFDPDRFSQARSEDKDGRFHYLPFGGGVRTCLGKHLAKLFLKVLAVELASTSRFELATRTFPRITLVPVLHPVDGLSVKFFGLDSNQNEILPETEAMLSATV
Protocol: as §1

[7] = system: MV4-11 cells; assay: Leukemia cell apoptosis (FITC-Annexin V), MV4-11 cells; assay type: cell-based, human; conditions: 0.1 μM RA plus 1 μM compound, stromal cells present, 48 hours
Protocol: RA can also induce apoptosis is a variety of cell types, including AML cells. This experiment tests CYP26 inhibitor compounds for their ability to rescue RA-induced apoptosis in the presence of bone marrow stromal cells. For these experiments MV4-11 AML cells are plated as above, in the presence and absence of stromal monolayers. Cells are then treated for 48 hours with RA (0.1 μM). After the treatment period, cells are stained with a FITC-labeled annexin V antibody (available from Thermofisher Scientific), which binds to the surface of apoptotic cells. Cells are then sorted by FACS in a as above and data are expressed as percentage of annexin V^+ (apoptotic) cells.

- CYP26A1 inhibition compared with ketoconazole ([3]; FIG. 1): comparable to ketoconazole
- IC50 ([3]; HeLa cell-based assay, 3 hours): 7 µM
- CYP26A1 Rel. to keto ([3]; IC50 relative to ketoconazole): 4.4
- Selectivity CYP26B1 versus CYP26A1 ([6]; HeLa cell-based assay): highly selective towards CYP26B1
- IC50 ([6]; HeLa cell-based assay, 3 hours): 0.2 µM
- CYP26B1 Rel. to keto ([6]; IC50 relative to ketoconazole): 0.02
SMILES: CC(C)(C)c1cccc(-c2cc3cc(/C=C/C(=O)O)ccc3[nH]2)c1 [Compound 026]
- Bglap and Ibsp expression ([1]; 10 nmol RA plus 1 μM compound): suppressing Bglap and Ibsp expression
- Bglap and Ibsp expression ([1]; 10 μM compound, osteogenic medium): blocked their expression
- Cyp26b1 gene expression ([1]; compared with controls): dramatic upregulation of Cyp26b1
- Calcified matrix (alizarin red staining) ([1]; osteogenic medium, 21 days, increasing concentrations): reduced by the presence of compound 026 in a dose-dependent manner
- RA-induced differentiation (CD11b+ cells) [2]: rescued RA-induced differentiation in the presence of stroma
- Expression of RA target genes in response to RA, co-treatment [4]: greatly enhanced and prolonged expression of RA target genes
- Expression of Cyp26a1 and Crabp2 in bone marrow mononuclear cells [5]: both induced
- CYP26B1 inhibition compared with ketoconazole ([6]; FIG. 2): dramatically increased inhibition of CYP26B1 enzyme activity compared with ketoconazole
- RA-induced apoptosis (Annexin V positive cells) [7]: rescued by the addition of compound 026
